Reference: patent US20240343761A1, “APELINERGIC MACROCYCLES AND USES THEREOF” (priority 2021, published 2024)
Where two headings read alike, the source gives them in different places. Bridge positions count the residues as written; N and C are the ends. Square brackets hold non-standard residues; d marks the D form. Ends that are not written are not given here. d1Nal = N[C@H](Cc1cccc2ccccc12)C(=O)O; AllylGly = C=CC[C@H](N)C(=O)O

Assays:
[1] = target: human APJ (transfected HEK293 cells, Gαi1 BRET assay) (human) (UniProt P35414); assay: cell-based or functional assay
[2] = target: T1, YFP-tagged human APJ receptor (human, UniProt P35414 1-380); assay: competitive radioligand binding, HEK293-hAPJ membranes
T1 construct: whole, on cells; also called hAPJ; APJ WT; not shown: YFP tag
T1 sequence (looked up): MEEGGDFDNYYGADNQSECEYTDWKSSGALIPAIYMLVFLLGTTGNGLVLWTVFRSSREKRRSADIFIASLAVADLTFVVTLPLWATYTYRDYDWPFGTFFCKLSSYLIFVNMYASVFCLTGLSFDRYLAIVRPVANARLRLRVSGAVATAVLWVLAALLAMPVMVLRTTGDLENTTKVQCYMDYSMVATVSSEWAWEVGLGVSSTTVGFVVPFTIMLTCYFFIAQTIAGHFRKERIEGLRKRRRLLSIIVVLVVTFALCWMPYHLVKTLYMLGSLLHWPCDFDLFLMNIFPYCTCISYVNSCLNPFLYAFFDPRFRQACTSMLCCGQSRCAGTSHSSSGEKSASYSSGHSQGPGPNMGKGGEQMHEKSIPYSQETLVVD

hAPJ receptor [3] = target: T2, hAPJ receptor (Homo sapiens, UniProt P35414); assay: BRET-based Gαi1 activation assay in HEK293 cells; assay type: cell-based; conditions: for Emax: HEK293, Table V, read-out: Gαi1 Emax
T2 construct: expressed in transfected cells; host or cells: HEK293, transient transfection with PEI
T2 sequence (P35414 1-380): T1 sequence (looked up)
Procedure, shortened: (§1)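 HEK293 cells in HBSS stimulated with analogs from 10^−5 to 10^−11 M, 5 min at 37 °C (Gαi1) or 30 min at room temperature (β-arrestin2).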

hAPJ receptor [4] = target: T2, hAPJ receptor; assay: BRET-based β-arrestin2 recruitment assay in HEK293 cells; assay type: cell-based; conditions: for Emax: HEK293
Procedure, shortened: as §1

[5] = Rat plasma stability (half-life in vitro); assay type: in vitro ADME; conditions: rat plasma; for half-life at […]: male, Sprague-Dawley, rat, plasma
Description: Plasma was obtained from male Sprague-Dawley rats by collecting blood in heparin tube and centrifugating at 13,000 rpm to remove blood cells. The isolated plasma was stored at −80° C. and thawed right before the test. In 96-well plate, 6 μL of peptide solution at 1 mM was incubated with 27 μL of plasma at 37° C. in an oven equipped with orbital shaker. Tightly fitted caps were used to seal the wells to avoid water evaporation during incubation. […] A 96-well UPLC plate was put at the bottom to collect the samples. Both plates were centrifuged at 500 g for 10 min at 4° C. to accelerate the filtration. […] The quantity of remaining peptide was plotted into an exponential one-phase decay curve using GraphPad Prism 8 which allowed to calculate peptide half-life. The results were presented as mean±SEM of at least 3 independent experiments, each done in simplicate.
The percentage of remaining analogue was calculated by doing the ratio between AU of compound and AUC of internal standard. Half-lives were extrapolated from curves.

in vivo = conditions: for AUC: male Sprague-Dawley rats
Description: Male Sprague-Dawley rats of 8-10 weeks were used in this study. […] Animals were placed in a containment chamber prior to i.v. injection to facilitate blood sampling. […] Those samples were immediately stored on crushed ice before being centrifuged at 13000 rpm for 5 min at 4° C. to isolate plasma (upper layer). The resultant plasma was transferred to polypropylene tubes, and immediately frozen at −80° C.
A combination of a protein precipitation and a solid phase extraction step were used to extract the peptides. Plasma sample was defrosted on ice. After vortex agitation (60 s), 100 μL sample was withdraw and 300 μL cold acetonitrile was added to precipitate the plasma proteins. The sample was then vortex (60 s) and centrifuged at 4500 rpm at 4° C. during 10 min. The supernatant was then isolated and directly pass through an HLB prime for additional clean up. The filtrate was diluted 10 times in 0.1% formic acid/water and filtered through a 0.22 μm syringe filter before LC/MS/MS analysis.
Samples were analyzed on a Sciex Qtrap 6500+ equipped with a microflow liquid chromatography (Eksigient M3 microflow) and a UPLC HSS-T3 column (1 mm×100 mm, 1.8 μm, equipped with a 0.2 μm fritted pre-filter). The solvent flow rate was set to 50 μL/min, the column temperature was kept at 40° C. and the injection volume was 3 μL. The mobile phase was 0.1% formic acid/water (A) and 0.1% formic acid/acetonitrile (B). The elution gradient starts with 2% of eluent B, increasing to 95% in 8 min, maintaining at 95% for 2 min and then back to initial conditions in 2 min for a total run time of 13 min. […] Analysis used two daughter traces (transitions), among them, the most abundant was for quantification and the second most abundant for confirmation.

[6] = tested on: anesthetized male Sprague-Dawley rats; assay: In vivo blood pressure measurement; set-up: species or system rat; conditions: i.v. bolus, doses 19.6 and 65 nmol/kg
Description: The animal experimental protocols were approved by the Animal Care Committee of Université de Sherbrooke and complied with policies and directives of the Canadian Council on Animal Care.
Male Sprague-Dawley rats (8-10 weeks of age) were anesthetized with ketamine/xylazine injection (87/13 mg/kg i.m.) and placed in supine position on a thermostatic pad. Their right carotid artery was catheterized with PE 50 (filled with heparinized saline), connected to a Micro-Med transducer (model TDX-300, Calabasas, USA) and Micro-Med blood pressure analyzer (model BPA-100c). […] This i.v. catheter was flushed with saline (0.2 mL) immediately after each injection.

Sprague-Dawley rats = assay: Echocardiography (cardiac performance) after s.c. injection; conditions: for effect on fractional shortening (FS) and cardiac output (CO): s.c. 0.2 μmol/kg, three hours after injection
[7] = target: T3, human APJ (transfected HEK293 cells, Gαi1 BRET assay) (human, UniProt P35414 1-380); assay: cell-based or functional assay
T3 sequence (looked up): T1 sequence (looked up)

[8] = male, Sprague-Dawley, rat, plasma, iv, 3 mg/kg

Molecule: Ac-Ape17-Met15Nle (KT03-12) (peptide)
- EC50 Gαi1 [1]: 2880 pM
- Ki [2]: 150 pM

Molecule: CC(C)C[C@@H]1NC(=O)[C@H](CCCNC(=N)N)NC(=O)[C@@H](N)CC=CC[C@@H](C(=O)N[C@@H](CCCCN)C(=O)NCC(=O)N2CCC[C@H]2C(=O)N[C@H](Cc2ccc3ccccc3c2)C(=O)O)NC(=O)[C@H](CO)NC1=O [Compound 43, NH2-c[X-R-L-S-X]c-K-G-P-(D-2Nal)]
- agonist character on Gαi1 (hAPJ receptor [3]): full agonists
- Emax (hAPJ receptor [3]): 105%
- agonist character on β-arrestin (hAPJ receptor [4]): partial agonists
- Emax (hAPJ receptor [4]; Table V, read-out: ß-arr2 Emax): 55%
- Emax (hAPJ receptor [4]; read-out: β-arr2 Emax): 55%
- half-life at […] ([5]; Table I, 37° C., up to 24 h, read-out: Half-life in vitro (converted)): > 24 h
- half-life at […] ([5]; Table V, read-out: Half-life t1/2): > 24 h
- AUC (in vivo; i.v. 3 mg/kg): 8.80 ± 0.41 min*(mg/mL)
- level at 5 min (in vivo; [8]): 36100 ng/mL
- level at 4 h (in vivo; [8]): 8600 ng/mL
- effect on blood pressure [6]: no effect
- effect on fractional shortening (FS) and cardiac output (CO) (Sprague-Dawley rats): significant increase in both FS and CO
- CO increase from baseline (Sprague-Dawley rats; s.c. 2 μmol/kg, 6 h): 16%
- FS increase (Sprague-Dawley rats; s.c. 2 μmol/kg, 6 h): 17%

Molecule: CCCC[C@H](NC(=O)[C@@H]1CCCN1C(=O)CNC(=O)[C@H](CCCCN)NC(=O)[C@@H]1CC=CC[C@H](N)C(=O)N[C@@H](CCCNC(=N)N)C(=O)N[C@@H](CC(C)C)C(=O)N[C@@H](CO)C(=O)N1)C(=O)N1CCC[C@H]1C(=O)N[C@@H](Cc1ccccc1)C(=O)O [Compound 20, NH2-c[X-R-L-S-X]c-K-G-P-Nle-P-F]
- Emax (hAPJ receptor [3]): 100%
- Emax (hAPJ receptor [4]; Table V, read-out: ß-arr2 Emax): 98%
- Emax (hAPJ receptor [4]; read-out: β-arr2 Emax): 98%
- ΔMABP (drop in blood pressure) [6]: −27 mmHg

Molecule: CCCC[C@H](NC(=O)[C@@H]1CCCN1C(=O)CNC(=O)[C@H](CCCCN)NC(=O)[C@@H]1CC=CC[C@H](N)C(=O)N[C@@H](CCCNC(=N)N)C(=O)N[C@@H](CC(C)C)C(=O)N[C@@H](CO)C(=O)N1)C(=O)O [Compound 29, NH2-c[X-R-L-S-X]c-K-G-P-Nle]
- Emax (hAPJ receptor [3]): 99%
- Emax (hAPJ receptor [4]; Table V, read-out: ß-arr2 Emax): 69%
- Emax (hAPJ receptor [4]; read-out: β-arr2 Emax): 69%
- times less stable than 20 [5]: 3 times
- times less stable than full-length analog 13 [5]: 5 times
- ΔMABP (drop in blood pressure) [6]: −13 mmHg

Molecule: CC(C)C[C@@H]1NC(=O)[C@H](CCCNC(=N)N)NC(=O)[C@@H](N)CC=CC[C@@H](C(=O)N[C@@H](CCCCN)C(=O)NCC(=O)N2CCC[C@H]2C(=O)N[C@H](Cc2cccc3ccccc23)C(=O)O)NC(=O)[C@H](CO)NC1=O [Compound 42, NH2-c[X-R-L-S-X]c-K-G-P-(D-1Nal)]
- agonist character on Gαi1 (hAPJ receptor [3]): full agonists
- Emax (hAPJ receptor [3]): 103%
- agonist character on β-arrestin (hAPJ receptor [4]): partial agonists
- Emax (hAPJ receptor [4]; Table V, read-out: ß-arr2 Emax): 70%
- Emax (hAPJ receptor [4]; read-out: β-arr2 Emax): 70%
- plasma presence at 4 h (in vivo; 3 mg/kg): completely cleared from plasma
- AUC (in vivo; i.v. 3 mg/kg): 1.33 ± 0.18 min*(mg/mL)
- ΔMABP (drop in blood pressure) [6]: −24 mmHg
- effect on fractional shortening (FS) and cardiac output (CO) (Sprague-Dawley rats): significant increase only in FS

Molecule: CCCC[C@H](NC(=O)[C@@H]1CCCN1C(=O)CNC(=O)[C@H](CCCCN)NC(=O)[C@@H]1Cc2cncn2CC=CC[C@H](NC(=O)[C@H](CCCNC(=N)N)NC(=O)[C@@H]2CCC(=O)N2)C(=O)N[C@@H](CCCNC(=N)N)C(=O)N[C@@H](CC(C)C)C(=O)N[C@@H](CO)C(=O)N1)C(=O)N1CCC[C@H]1C(=O)N[C@@H](Cc1ccccc1)C(=O)O [Compound 15, Pyr-R-c[X-R-L-S-Alh]c-K-G-P-Nle-P-F]
- Emax (hAPJ receptor [3]): 99%
- Emax (hAPJ receptor [4]; Table V, read-out: ß-arr2 Emax): 115%
- Emax (hAPJ receptor [4]; read-out: β-arr2 Emax): 115%
- ΔMABP (drop in blood pressure) [6]: −40 mmHg

Molecule: CSCC[C@H](NC(=O)[C@@H]1CCCN1C(=O)CNC(=O)[C@H](CCCCN)NC(=O)[C@H](Cc1cnc[nH]1)NC(=O)[C@H](CO)NC(=O)[C@H](CC(C)C)NC(=O)[C@H](CCCNC(=N)N)NC(=O)[C@@H]1CCCN1C(=O)[C@H](CCCNC(=N)N)NC(=O)[C@@H]1CCC(=O)N1)C(=O)N1CCC[C@H]1C(=O)N[C@@H](Cc1ccccc1)C(=O)O [Compound 60, Pyr-R-P-R-L-S-H-K-G-P-M-P-F, reference compound]
- completely disappeared after (in vivo; i.v. 3 mg/kg): 5 min
- AUC (in vivo; i.v. 3 mg/kg): 0.0002 ± 0.0001 min*(mg/mL)
- clearance (in vivo; [8]): > 100 mL/min/kg
- effect on fractional shortening (FS) and cardiac output (CO) (Sprague-Dawley rats): no observable effect

Molecule: H-[AllylGly]RLS[AllylGly]KGP[d1Nal] (staple 1-5) [Compound 42 (KT04-43)]
- Gαi1 Emax (%) [7]: 103%
- Ki [2]: 600 pM
